Measured values taken from EPA's ToxRefDB 2.

Tests used:
[1] = system: mouse; settings: Carcinogenicity; b6c3f1; Oral; Feed; dose end: 104 week; group: systemic; systemic / in life observation / body weight / body weight
[2] = system: rat; settings: Prenatal developmental toxicity study, other, Oral, Gavage/Intubation, dose end: 15 GD
[3] = system: rat; settings: Subchronic oral toxicity in rodents, wistar, Feed, dose end: 3 month, group: systemic
[4] = system: rat; settings: Combined chronic toxicity/carcinogenicity, wistar, Oral, Feed, dose end: 104 week, group: systemic
[5] = system: rat; settings: Multigenerational reproductive toxicity study, sprague dawley, Oral, Feed, dose end: 2 generation
[6] = system: rat; settings: Combined chronic toxicity/carcinogenicity, wistar, Oral, Feed, dose end: 104 week, group: systemic; remark: listed apart in the source
[7] = system: mouse; settings: Subchronic oral toxicity in rodents, b6c3f1, Gavage/Intubation, dose end: 13 week, group: systemic
[8] = system: mouse; settings: Sub-acute repeat dose toxicity, b6c3f1, Oral, Gavage/Intubation, dose end: 15 day, group: systemic
[9] = system: rat; settings: Subchronic oral toxicity in rodents, fischer, Gavage/Intubation, dose end: 13 week, group: systemic, systemic / pathology gross / spleen / enlarged + systemic / pathology microscopic / kidney / hemosiderosis + systemic / pathology …
[10] = system: rat; settings: Sub-acute repeat dose toxicity, fischer, Oral, Gavage/Intubation, dose end: 14 day, group: systemic
[11] = system: mouse; settings: Carcinogenicity, b6c3f1, Oral, Gavage/Intubation, dose end: 103 week, group: systemic
[12] = system: rat; settings: Carcinogenicity, fischer, Oral, Gavage/Intubation, dose end: 103 week, group: systemic
[13] = system: rat; settings: Carcinogenicity; sprague dawley; Oral; Gavage/Intubation; dose end: 105 week; group: systemic; systemic / clinical chemistry / [other] / [other] + systemic / organ weight / liver / relative to body weight + systemic / organ weight / …
[14] = system: rat; settings: Carcinogenicity, Osborne-Mendel, Oral, Gavage/Intubation, dose end: 104 week, group: systemic
[15] = group: developmental, developmental / developmental malformation / bone / full supernumerary + developmental / developmental malformation / general / [other]
[16] = group: maternal, systemic / in life observation / body weight / body weight gain + systemic / in life observation / food consumption / food consumption
[17] = group: maternal, systemic / in life observation / body weight / body weight gain + systemic / in life observation / food consumption / food consumption + …
[18] = systemic / clinical chemistry / [other] / [other] + systemic / in life observation / body weight / body weight gain
[19] = systemic / organ weight / kidney / absolute + systemic / organ weight / kidney / relative to body weight + systemic / organ weight / kidney…
[20] = systemic / hematology / platelet / platelet + systemic / organ weight / liver / relative to body weight + systemic / pathology microscopic…
[21] = systemic / pathology microscopic / adrenal gland / pheochromocytoma benign + systemic / pathology microscopic / adrenal gland / …
[22] = group: offspring, developmental / offspring survival late / viability index / viability index + systemic / in life observation / body weight / offspring (pup…
[23] = group: parental, systemic / clinical chemistry / alpha-2 globulin / alpha-2 globulin + systemic / organ weight / kidney / absolute + systemic / organ weight…
[24] = systemic / clinical chemistry / alpha-2 globulin / alpha-2 globulin
[25] = systemic / clinical chemistry / alpha-2 globulin / alpha-2 globulin + systemic / hematology / platelet / platelet + systemic / organ weight…
[26] = systemic / in life observation / body weight / body weight
[27] = systemic / pathology gross / spleen / enlarged + systemic / pathology microscopic / spleen / hematopoietic cell proliferation + systemic / …
[28] = systemic / pathology gross / spleen / enlarged
[29] = systemic / pathology gross / spleen / enlarged + systemic / pathology microscopic / spleen / congestion + systemic / pathology microscopic…
[30] = systemic / pathology microscopic / stomach / hyperplasia
[31] = systemic / pathology microscopic / stomach / squamous cell papilloma + systemic / pathology microscopic / stomach / hyperplasia
[32] = systemic / pathology microscopic / liver / inflammation + systemic / pathology microscopic / spleen / hematopoietic cell proliferation + …
[33] = systemic / pathology microscopic / spleen / hematopoietic cell proliferation + systemic / pathology microscopic / spleen / hemosiderosis
[34] = systemic / pathology microscopic / liver / carcinoma + systemic / pathology microscopic / liver / neoplastic nodule + systemic / pathology …
[35] = systemic / pathology microscopic / thyroid gland / adenoma

O=C1OC(=O)c2ccccc21 [Phthalic anhydride]
LEL [1]: 1800 mg/kg/day | LOAEL [1]: 1800 mg/kg/day | NEL [1]: < 1800 mg/kg/day | NOAEL [1]: < 1800 mg/kg/day

ClC1C(Cl)C(Cl)C(Cl)C(Cl)C1Cl (centres undefined) [Lindane]
LEL [2, 15]: 20 mg/kg/day | LOAEL [2, 15]: 20 mg/kg/day | NEL [2, 15]: 10 mg/kg/day | NOAEL [2, 15]: 10 mg/kg/day | LEL [2, 16]: 10 mg/kg/day | LOAEL [2, 16]: 10 mg/kg/day | NEL [2, 17]: 5 mg/kg/day | NOAEL [2, 17]: 5 mg/kg/day | LEL [3, 18]: 0.01 mg/kg/day | NEL [3, 18]: < 0.01 mg/kg/day | LOAEL [3, 19]: 1 mg/kg/day | NOAEL [3, 19]: 0.2 mg/kg/day | LOAEL [4, 20]: 4.81 mg/kg/day | NOAEL [4, 20]: 0.47 mg/kg/day | LEL [4, 21]: 0.05 mg/kg/day | NEL [4, 21]: < 0.05 mg/kg/day | LEL [5, 22]: 13.1 mg/kg/day | LOAEL [5, 22]: 13.1 mg/kg/day | NEL [5, 22]: 1.71 mg/kg/day | NOAEL [5, 22]: 1.71 mg/kg/day | LOAEL ([5]; group: parental, systemic / clinical chemistry / alpha-2 globulin / alpha-2 globulin): 1.71 mg/kg/day | LEL [5, 23]: 1.71 mg/kg/day | NEL [5, 23]: 0.0865 mg/kg/day | NOAEL [5, 23]: 0.0865 mg/kg/day | LEL [6, 24]: 0.05 mg/kg/day | NEL [6, 24]: < 0.05 mg/kg/day | LOAEL [6, 25]: 4.81 mg/kg/day | NOAEL [6, 25]: 0.47 mg/kg/day

CN(C)c1ccccc1 [N,N-Dimethylaniline]
LEL [7, 26]: 31 mg/kg/day | NEL [7, 26]: < 31 mg/kg/day | LOAEL [7, 27]: 62 mg/kg/day | NOAEL [7, 27]: 31 mg/kg/day | LEL [8, 28]: 188 mg/kg/day | LOAEL [8, 29]: 375 mg/kg/day | NEL [8, 29]: 94 mg/kg/day | NOAEL [8, 29]: 188 mg/kg/day | LEL [9]: 31 mg/kg/day | LOAEL [9]: 31 mg/kg/day | NEL [9]: < 31 mg/kg/day | NOAEL [9]: < 31 mg/kg/day | LEL [10, 28]: 94 mg/kg/day | NEL [10, 28]: < 94 mg/kg/day | LOAEL [10, 27]: 375 mg/kg/day | NOAEL [10, 27]: 188 mg/kg/day | LEL [11, 30]: 15 mg/kg/day | NEL [11, 30]: < 15 mg/kg/day | LOAEL [11, 31]: > 30 mg/kg/day | NOAEL [11, 31]: ≥ 30 mg/kg/day | LOAEL [12, 32]: 30 mg/kg/day | NOAEL [12, 32]: 3 mg/kg/day | LEL [12, 33]: 3 mg/kg/day | NEL [12, 33]: < 3 mg/kg/day

Clc1cc2c(cc1Cl)Oc1cc(Cl)c(Cl)cc1O2 [2,3,7,8-Tetrachlorodibenzo-p-dioxin]
LEL [13]: 3e-06 mg/kg/day | LOAEL [13]: > 0.0001 mg/kg/day | NEL [13]: < 3e-06 mg/kg/day | NOAEL [13]: ≥ 0.0001 mg/kg/day | LOAEL [14, 34]: > 0.0005 mg/kg/day | NOAEL [14, 34]: ≥ 0.0005 mg/kg/day | LEL [14, 35]: 1e-05 mg/kg/day | NEL [14, 35]: < 1e-05 mg/kg/day
